Measured values reported in patent US7276352B2, “Induction of β cell differentiation in human cells by stimulation of the GLP-1 receptor” (The Regents of the University of California, priority 2000, dated 2007).

B1: betacellulin (protein, UniProt P35070 32-111, looked up)
Betacellulin: DGNSTRSPETNGLLCGDPEENCAATTTQSKRKGHFSRCPKQYKHYCIKGRCRFVVAEQTPSCVCDEGYIGARCERVDLFY
notes: factor reported to be able to induce endocrine differentiation in cell lines and primary cells

Legend:
βlox5 cells [1] = experiment: RT-PCR analysis of pancreatic hormone gene expression in βlox5 cells; assay type: cell-based, human; conditions: for hormone expression in βlox5 cells: βlox5 cells expressing PDX-1, data not shown
Source text: FIG. 2: RT-PCR analysis of pancreatic hormone gene expression in βlox5. The conditions tested were βlox5 cells grown in monolayer culture, βlox5 cells infected with a retroviral vector expressing PDX-1, βlox5 cells grown as three-dimensional aggregates, and βlox5 cells treated with exendin-4. FIG. 2(A) insulin; FIG. 2(B) quantitative RT-PCR analysis of insulin gene expression; FIG. 2(C) other pancreatic hormones. Aggregation of cells into three-dimensional clusters and the retroviral vector expressing PDX-1 have been described previously (Itkin-Ansari et al., submitted). Exendin-4 (Sigma) was used at a concentration of 10 nM. RT-PCR for insulin, somatostatin, glucagon, and IAPP have been described previously (Itkin-Ansari et al., submitted). Quantitative RT-PCR was done by interpolation from a standard curve constructed using a plasmid containing the human insulin cDNA.
PDX-1 also acted synergistically with cell-cell contact to further increase the level of […] expression about 1,000-fold above the cells not expressing PDX-1, to a level similar to that found in normal human islets. To determine whether βlox5 could be induced to express pancreatic hormones, recombinant PDX-1 was expressed in βlox5 using a retroviral vector. […] Therefore, other factors were examined for their ability to induce hormone expression in βlox5 cells expressing PDX-1. Activin and betacellulin have been reported to be able to induce endocrine differentiation in cell lines and primary cells (Mashima et al., Diabetes 48:304-9 (1999), Huotari et al., Endocrinology 139, 1494-9 (1998), Mashima et al., J Clin Invest 97:1647-54 (1996), Yamaoka et al, J Clin Invest 102:294-301 (1998)). However, they had no effect on hormone expression in βlox5 cells (data not shown).
GLP-1, a small peptide cleaved from the proglucagon molecule, is an insulin secretogogue Drucker et al., Diabetes 47:159-69 (1998)).
By itself, exendin-4 had no effect on hormone expression in βlox5 (FIG. 2A, lane 8). […] The nature of the interaction between exendin-4, cell-cell contact, and PDX-1 is evident from the fact that no hormone mRNA was detectable with any one or two of the three inducing factors (FIG. 2A). […] Islet amyloid polypeptide (IAPP) mRNA, a hormone that is co-secreted with insulin, was also expressed in induced βlox5 cells (FIG. 2C, lane 2). However, the other major pancreatic hormones, glucagon, somatostatin, and pancreatic polypeptide (PP), were not induced (FIG. 2C).

βlox5 cells [2] = experiment: Analysis of transcription factors expressed in βlox5 cells (RT-PCR, Western blot); assay type: cell-based, human
Experimental: FIG. 3: Analysis of transcription factors expressed in βlox5 cells. FIG. 3(A) electrophoretic mobility shift assay (EMSA) of PDX-1. EM5A for PDX-1 was performed using a probe derived from the human insulin promoter A5 element. FIGS. 3(B&C) RT-PCR analysis of BETA2 and Pax6. FIG. 3(D) Western blot analysis of CREB. FIG. 3(E) EMSA of RIPE3b.
The expression of transcription factors important in β-cell development was examined to determine whether they had been induced by PDX-1, cell-cell contact, and exendin-4. […] GLP-1 has been reported to increase cAMP levels and this has been thought to be a major mechanism by which GLP-1 acts as an insulin secretogogue (Serre et al., Endocrinology 139:4448-54 (1998)). […] RIPE3b, a factor that plays a critical role in insulin gene expression but that has not yet been cloned, is expressed in βlox5 irrespective of PDX-1, cell-cell contact, or exendin-4 (FIG. 3E).

[3] = induced βlox5 cells (PDX-1, cell-cell contact, exendin-4 10 nM)

Row | Molecule | hormone expression in βlox5 cells (βlox5 cells [1]) | hormone expression in βlox5 (βlox5 cells [1]; exendin-4 by itself, 10 nM, four days, no PDX-1, no aggregation) | Islet amyloid polypeptide (IAPP) mRNA (βlox5 cells [1]; [3]) | glucagon, somatostatin and pancreatic polypeptide (PP) expression (βlox5 cells [1]; [3]) | insulin mRNA (βlox5 cells [1]; βlox5 cells expressing PDX-1, suspension culture as three-dimensional aggregates, 10 nM exendin-4 for four days) | BETA2 expression (βlox5 cells [2]; PDX-1, cell-cell contact and exendin-4, RT-PCR) | CREB expression (βlox5 cells [2]; exendin-4 alone, independently of cell-cell contact and PDX-1, Western blot)
1 | Activin | no effect |  |  |  |  |  | 
2 | exendin-4 |  | no effect | expressed | not induced | substantial amount of insulin mRNA was detectable | induced only by the combination of all three inducing factors | induced
3 | B1 | no effect |  |  |  |  |  | 
